According to US7772197B2, “1,3,5-triazines for treatment of viral diseases” (1,3,5-Triazines for Treatment of Viral Diseases, priority 2002, dated 2010):
pEC50: −log10 of the molar value. Read-outs that look alike come from different tables or passages of the source.

Tests used:
[1] = test system: HIV-1 LAI; assay: Treatment of HIV-1-infected MT-2 cells with nucleoside analogues, p24 ELISA; type: cell-based
Description: The strains of HIV-1 used for primary drug screening are HIV-1 LAI or the appropriate strain of NRTI resistant HIV for studies of cross-resistance. Virus was propagated on MT-2 cells at an multiplicity of infection (MOI) of 0.01 to generate virus stocks. Briefly, the MT-2 cells were suspended in RPMI 1640 media supplemented with 10% fetal bovine serum, streptomycin and penicillin (cRPMI) and grown in a 37° C. incubator containing 5% CO2. Serial dilution of the virus and infection of MT-2 cells were followed by an ELISA detecting the capsid protein of HIV-1 (p24) and used to determine the titer of the virus stocks (50% tissue culture infectious dose (TCID50)). The ELISA was performed according to the manufacturer's instructions. The MT-2 cells are also used for visualizing the cytopathic effects of HIV-1 growth (e.g. syncytia formation).
0.1 ml of a 3×10^5 cells/ml MT-2 cell suspension were seeded in 96-well plates at 3×10^4 cells/well. The compounds to be assayed were diluted in a separate 96-well at ten times (10×) the concentration needed for the screen. 22 μl of the 10× compounds was then added to the wells in triplicate except for six control wells, containing uninfected MT-2 cells alone (3 wells) and untreated HIV-infected MT-2 cells (3 wells). This was followed by the addition of HIV-1 at an MOI of 0.01, except for the three wells serving as the uninfected control. 0.1 ml of cRPMI was added to the uninfected well instead of virus. After the addition of virus, the 96-well plate was centrifuged at 1,200×g for two hours to enhance the adsorption of the virus by the MT-2 cells (see, e.g., O'Doherty, J. Virol. 74:10074-10080 (2000)). After the centrifugation step, the 96-well plate was then incubated in a 37° C. incubator containing 5% CO2 for three days. At the end of this time period the virus and cells were mixed by gentle pipetting followed by a 1 minute spin at 600×g to pellet the cells. The supernatant of each well was then serially diluted 1,000-fold into new 96-well plates to serve as inoculum for the next passage and assayed by ELISA for the amount of p24 produced. The next passage was performed as described above, except that the virus used to infect the cells was derived from the 1,000-fold dilution plate. To generate an EC50 value, half-log concentrations of mutagenic nucleoside or nucleotide analogue capable of eradicating virus in a single passage are tested as above to generate a dose-response curve.

[2] = Pharmacokinetics of DHAdC base and DHAdC-palmitate in rats; type: in vivo; settings: rat, plasma, IV
[3] = test system: reverse transcriptase of HIV NL4-3; assay: DHAdC viral mutagenicity, sense strand of RT fragment; type: cell-based; settings: 50 μM
Description: The viral genomic DNA from cells treated with the deoxyribonucleoside analog 5-aza-dC (30 μM) was purified using a Qiagen DNeasy® Kit. 1 μg of genomic DNA was used to amplify a 1 kb region of the HIV-1 RT proviral DNA by PCR. The PCR product was then cloned into a TOPO® cloning vector. A Millipore Miniprep Kit was used to purify plasmid containing proviral inserts. About 45 positive clones were sequenced in both directions by a Beckman Coulter CEQ 8000. The sequencing results were analyzed and assembled using the DNASTAR Stagman program. Each mutated base was counted and the mutation rate was calculated over the total number of sequenced nucleotides.
Assessment of DHAdC viral mutagenicity was carried out as described above for 5-aza-dC. Mutagenesis of the sense strand of a 0.9 kb fragment of reverse transcriptase of HIV NL4-3 was determined after a single passage in SN1212 (50 μM) and compared to an untreated control.

Compound: NC1=NC(=O)N([C@H]2C[C@H](O)[C@@H](CO)O2)CN1 [DHAdC, 1-(2-Deoxy-β-D-ribofuranosyl)-4-amino-1,2,5,6-tetrahydro-1,3,5-triazin-2-one]
- pEC50 ([1]; Human immunodeficiency virus 1, MT2, read-out: EC50 against HIV, against HIV, strain not stated, 'in the range of'): ~8.00
- pEC50 ([1]; Human immunodeficiency virus 1, MT2, wild-type HIV strain LAI, MT-2 cells): 5.52
- AUC(0-inf) [2]: 75000 ng·h/mL
- C⇄T transitions, fold enhancement [3]: 4.6 fold
- mutation rate in HIV RT, fold higher than control [3]: 1.4 fold
- A→C C→A mutations ([3]; number of mutations): 1
- A→T T→A mutations ([3]; number of mutations): 1
- G→A A→G mutations ([3]; number of mutations): 17
- G→C C→G mutations ([3]; number of mutations): 3
- G→T T→G mutations ([3]; number of mutations): 3
- T→C C→T mutations ([3]; number of mutations): 12
- mutation rate % ([3]; single passage): 0.015%
- mutation rate in HIV RT ([3]; treated, control 0.0011): 0.0015
